Patent US9072676B2, “Cyclohexyl carbamate compounds as skin and/or hair lightening actives” (SYMRISE AG, priority 2010, dated 2015)
Where two headings read alike, the source gives them in different places.

How the values were obtained:
[1] = tested on: B16V mouse melanoma cells; test: Depigmenting effect on melanoma cell cultures (inhibition of pigmentation); type: cell-based; settings: read-out: IC50 (concentration at which pigmentation is inhibited by 50%)
Protocol: B16V mouse melanoma cells are disseminated in a 96-well microtitre plate in a concentration of 5×10^3 cells/well. After cultivation for 24 h at 37° C. and 5% CO2 in RPMI medium, enriched with 10% foetal calf serum, various concentrations of the test substances and 0.3 mM tyrosine and 10 nM α-MSH (α-melanocyte stimulating hormone) are added and incubated for a further 96 h. The maximum concentration of the test substances used corresponds to 0.1 times the value of the IC20 value of the cytotoxicity assay. Standards are incubated with kojic acid in concentrations of 0.01 mM, 0.1 mM and 1 mM in addition to tyrosine and α-MSH. Only tyrosine and α-MSH are added to the controls. After incubation, sodium lauryl sulfate and sodium hydroxide solution (final concentrations: 1 mM and 1 M respectively) are added to the culture medium and the absorption (A) is measured after 3 h at 400 nm.
The inhibition of pigmentation in the presence of the test compounds or kojic acid was calculated using the following equation: Inhibition of pigmentation (%)=100−[(Atest compound/Acontrol)×100] wherein
Atest compound=absorption of the wells with test substance and with cells
Acontrol=absorption of the wells without test substance, but with cells
From the inhibition of pigmentation (%) in a series of dilutions of test compounds, the IC50 for each test compound is calculated. This is the concentration of a test compound at which pigmentation is inhibited by 50%.

Pigmented pig skin = test: Depigmenting effect on ex vivo skin (melanin granules, Fontana-Masson stain, image analysis); type: tissue-based; settings: applied topically, 6 days
Protocol: Pigmented pig skin was excised from animals (slaughtered for meat production; the pig skin model included the subcutis fat layer as described in EP 1 939 27), cut into 4×4×3 mm pieces (length×width×height) and placed in culture at the air-liquid interface on a sterilized cotton pad soaked with 5 ml of customized DMEM (Dulbecco's Modified Eagle Medium). Assays were started 24 h after sample acclimatization at 37° C., 5% CO2. O/W emulsions (as described in more detail below) without (=control) and with the test compounds, respectively, were applied topically and incubated for 6 days. Histological sections were prepared and melanin granules stained by Fontana-Masson technique. The granules were quantified by image analysis.
The O/W emulsions used had the following composition:
Phases A and B are heated to 70° C. separately. Pemulen TR1 as well as Ultrez-21 are dispersed in phase B when heated to 70° C. Phase B/C is added to phase A by mixing with an Ultra Turrax, followed by emulsifying. Phase D is slowly added to phase A/B/C using a paddle mixer and a pH 5.5-6 is adjusted. The formulation is cooled down while mixing with a paddle mixer. Phase E is prepared by dissolving one or more compounds of formula (I) in Hydrolite-5. Subsequently, phase E is added to the mixture of phase A-D.

[2] = B16V cells, 0.3 mM tyrosine and 10 nM α-MSH, 96 h incubation, absorption at 400 nm

Compound | IC50 [1, 2] [µM] | other results
CCC(C)NC(=O)OC1CC(C)CC(C)(C)C1 (centres unmarked) [BIO1844, sec-Butyl-carbamic acid 3,3,5-trimethyl-cyclohexyl ester] | 219 | 
CC(C)C1CCCCC1OC(=O)Nc1ccccc1O (centres unmarked) [BIO1646, (2-Hydroxy-phenyl)-carbamic acid 2-isopropyl-cyclohexyl ester] | 4.7 | 
CCCCNC(=O)OC1C(C)CCC(C)C1C (centres unmarked) [BIO1617, n-Butyl-carbamic acid 2,3,6-trimethyl-cyclohexyl ester] | 15.4 | 
O=C(Nc1ccccc1)OC1CCCCC1 [BIO1741, Phenyl-carbamic acid cyclohexyl ester] | 12.9 | Melanin score vs. Control (Pigmented pig skin; 1 wt.% in O/W emulsion): −28%
CCCCNC(=O)OC1CCCCC1C(C)C (centres unmarked) [BIO1841, Butyl-carbamic acid 2-isopropyl-cyclohexyl ester] | 28.5 | 
CCNC(=O)OC1CC(C)CC(C)(C)C1 (centres unmarked) [BIO1572, Ethyl-carbamic acid 3,3,5-trimethyl-cyclohexyl ester] |  | IC50 ([1]; 96 h): 63.1 µM
CCCCCCNC(=O)OC1CC(C)CC(C)(C)C1 (centres unmarked) [BIO1850, n-Hexyl-carbamic acid 3,3,5-trimethyl-cyclohexyl ester] | 14.3 | 
CCN(CC)C(=O)OC1CCCCC1C(C)C (centres unmarked) [BIO1694, Diethyl-carbamic acid 2-isopropyl-cyclohexyl ester] | 38.5 | 
COc1ccccc1NC(=O)OC1CCCCC1C(C)C (centres unmarked) [BIO1744, (2-Methoxy-phenyl)-carbamic acid 2-isopropyl-cyclohexyl ester] | 18.3 | 
Cc1ccc(NC(=O)OC2CC(C)CC(C)C2)cc1 (centres unmarked) [BIO1822, p-Tolyl-carbamic acid 3,5-dimethyl-cyclohexyl ester] | 52.5 | 
CCNC(=O)OC1CC2CCC1(C)C2(C)C (centres unmarked) [BIO1573, Ethyl-carbamic acid 1,7,7-trimethyl-bicyclo[2.2.1]hept-2-yl ester] |  | IC50 ([1]; 96 h): 74.9 µM
CC(C)(C)C1CCCCC1OC(=O)Nc1ccccc1 (centres unmarked) [BIO1740, Phenyl-carbamic acid 2-tert-butyl-cyclohexyl ester] | 5.5 | 
CCCCNC(=O)OC1CCCC(C)C1C (centres unmarked) [BIO1842, Butyl-carbamic acid 2,3-dimethyl-cyclohexyl ester] | 94.1 | 
COCCCNC(=O)OC1CC(C)CC(C)(C)C1 (centres unmarked) [BIO1574, (3-Methoxy-propyl)-carbamic acid 3,3,5-trimethyl-cyclohexyl ester] |  | IC50 ([1]; 96 h): 9.5 µM
CCCCNC(=O)OC1CC(C)CC(C)C1 (centres unmarked) [BIO1840, n-Butyl-carbamic acid 3,5-dimethyl-cyclohexyl ester] | 89.5 | 
CCN(CC)C(=O)OC1C(C)CCC(C)C1C (centres unmarked) [BIO1692, Diethyl-carbamic acid 2,3,6-trimethyl-cyclohexyl ester] | 41.7 | 
C=C(C)C1CCC(C)CC1OC(=O)NCC (centres unmarked) [BIO1551, Ethyl-carbamic acid 2-isopropenyl-5-methyl-cyclohexyl ester] | 40.9 | 

The remaining compounds from weak to strong by IC50 [1, 2], led by results:

IC50 [1, 2] [µM] | Compound | other results
72.5 | Cc1ccc(NC(=O)OC2CCCC(C)C2)cc1 (centres unmarked) [BIO1825, p-Tolyl-carbamic acid 3-methyl-cyclohexyl ester] | 
67 | OC[C@H]1O[C@@H](Oc2ccc(O)cc2)[C@H](O)[C@@H](O)[C@@H]1O [beta-Arbutin, reference compound] | 
43 | C=C(C)C1CCC(C)CC1OC(=O)NCCCC (centres unmarked) [BIO1615, Butyl-carbamic acid 2-isopropenyl-5-methyl-cyclohexyl ester] | 
32.7 | CCNC(=O)OC1CC(C)CC(C)C1 (centres unmarked) [BIO1561, Ethyl-carbamic acid 3,5-dimethyl-cyclohexyl ester] | Melanin score vs. Control (Pigmented pig skin; 1 wt.% in O/W emulsion): −26%
25.1 | COc1ccccc1NC(=O)OC1CC(C)CC(C)(C)C1 (centres unmarked) [BIO1703, (2-Methoxy-phenyl)-carbamic acid 3,3,5-trimethyl-cyclohexyl ester] | Melanin score vs. Control (Pigmented pig skin; 0.5 wt.% in O/W emulsion): −37%
18.9 | CC1CC(C)CC(OC(=O)Nc2ccccc2)C1 (centres unmarked) [BIO1685, Phenyl-carbamic acid 3,5-dimethyl-cyclohexyl ester] | 
12.7 | CCCC1CCC(OC(=O)NCCCC(OCC)OCC)CC1 (centres unmarked) [BIO1707, (4,4-Diethoxy-butyl)-carbamic acid 4-propyl-cyclohexyl ester] | 
10.9 | CCCCNC(=O)OC1CC(C)CC(C)(C)C1 (centres unmarked) [BIO1616, n-Butyl-carbamic acid 3,3,5-trimethyl-cyclohexyl ester] | 
10.9 | CC1CCCCC1NC(=O)OC1CCC(C(C)(C)C)CC1 (centres unmarked) [BIO1690, (2-Methyl-cyclohexyl)-carbamic acid 4-tert-butyl-cyclohexyl ester] | 
10.2 | COc1ccccc1NC(=O)OC1C(C)CCC(C)C1C (centres unmarked) [BIO1701, (2-Methoxy-phenyl)-carbamic acid 2,3,6-trimethyl-cyclohexyl ester] | 
5.6 | CC1CC(OC(=O)Nc2ccccc2O)CC(C)(C)C1 (centres unmarked) [BIO1642, (2-Hydroxy-phenyl)-carbamic acid 3,3,5-trimethyl-cyclohexyl ester] | 
4.7 | Cc1ccc(NC(=O)OC2CCCCC2C(C)C)cc1 (centres unmarked) [BIO1824, p-Tolyl-carbamic acid 2-isopropyl-cyclohexyl ester] | Melanin score vs. Control (Pigmented pig skin; 1 wt.% in O/W emulsion): −44%
0.7 | CC1CCCC(OC(=O)Nc2ccccc2O)C1C (centres unmarked) [BIO1643, (2-Hydroxy-phenyl)-carbamic acid 2,3-dimethyl-cyclohexyl ester] | Melanin score vs. Control (Pigmented pig skin; 0.5 wt.% in O/W emulsion): −26%
